# Results taken from patent EP1143968B9 (priority 1999, dated 2000).
# Read-outs that look alike come from different tables or passages of the source.
# How the values were obtained:
# [1] = Relative water solubility by reverse phase HPLC; settings: for retention time: reverse phase column, silica with diphenylmethyl functionalities, mobile phase acetonitrile/water, longer retention = less water soluble
# Description: The water solubility of 7-hexanoyl taxol relative to paclitaxel was determined via HPLC analysis using a reverse phase column and illustrations of the HPLC traces are shown in Fig. 2. The column employed was made of silica with the hydrophilic Si-OH functionalities converted to hydrophobic diphenylmethyl functionalities. The mobile phase was acetonitrile/water. In this column, a hydrophilic or water soluble test material is retained primarily in the aqueous mobile phase, resulting in the water soluble compounds eluting from the column earlier than hydrophobic or water insoluble compounds.
# [2] = tested on: coronary arteries of pigs; test: In vivo testing of drug-loaded polymer stents in pig coronary arteries; settings: for % Intimal Growth / % Diameter Stenosis: metal support/polymer segments stent, 1500 µg drug; for % Intimal Growth / % Diameter Stenosis / reduction in percent stenosis compared to the stent containing paclitaxel: 28 days; for % Diameter Stenosis: morphometric analysis; for reduction in percent stenosis compared to the stent containing paclitaxel: pigs
# Description: In studies performed in support of the invention, polymeric materials containing 7-hexanoyl taxol were prepared from an acrylate/methyacrylate monomer mixture and polymerized using a methacrylate crosslinker, as described in Example 2. 7-hexanoyl taxol was incorporated into the polymer by contacting the polymer with a concentrated solution of the 7-hexanoyl taxol in a suitable organic solvent. Such polymeric materials, and polymeric materials similarly formed but with paclitaxel rather than 7-hexanoyl taxol, were used in combination with a support stent, as illustrated in Fig. 3C. The test and control stents were placed in the coronary arteries of pigs, as described in Example 3, and were left in vivo for 28 days. A metal stent not carrying a polymeric material was also placed into an-artery. At the time of insertion of the test and control stents, the coronary artery was characterized using a computer-based coronary angiography analysis system (Umans, V.A., et al., JACC 21(6):1382-1390, (1993)). Boundaries of a selected coronary artery segment were detected automatically from optically magnified and video-digitized regions of interest. The catheter used for insertion of the stents was used as a scaling device to determine the dimensions of the artery at the site of implantation. The original vessel diameter at the time of implantation was determined.
# After the 28 day test period, the arteries were then explanted from the pig and pressure fixed for morphometric analysis. […] The percent stenosis was taken as one minus the stented vessel's minimum lumen diameter divided by the diameter of an unstented reference vessel time one-hundred. The percent intimal growth was also determined from the following equation: 1-[(stented vessel's minimum lumenal diameter)/(diameter of stented portion prior to stent placement)]*100. The balloon to artery ratio was also determined as a measure of the degree of distension of the vessel by the balloon.
# In another study in support of the invention, stents were prepared as described in Examples 2 and 3. The polymeric materials carried either 7-hexanoyl taxol, paclitaxel or 7-xylosyltaxol. […] The stents were placed in coronary arteries of pigs, according to the procedure described above. After the test period, the percent diameter stenosis and neointimal thickness of the arteries were determined. The percentage of diameter stenosis was determined by two procedures, via quantative coronary angiography (QCA) and via morphometric evaluation of the vessels. The later procedure is described in Example 3. The former procedure, QCA, was performed according to the procedure of Umans, et al. described above, with lumen dimensions determined prior to explanting the vessels for morphometric analysis.
# A polymer sleeve, prepared as described in Example 2, was placed about a metal, corrugated stent. The polymer sleeve contained 1500 µg of 7-hexanoyl taxol.
# The two-drug loaded stents and two control metal stents with no polymer sleeve were placed into the coronary arteries of healthy Domestic Farm Swine pigs (Pork Power, Inc.) by conventional techniques using a commercially available catheter (Advanced Cardiovascular Systems). The stents were imaged during and after the insertion procedure to ensure proper placement using conventional angiographic imaging techniques. The metal control stents were placed in two different pigs, in one pig the stent was positioned in the left anterior descending artery and in the other pig in the right coronary artery. The comparative control stent containing paclitaxel was placed in one animal in the right coronary artery. The test stents containing 7-hexanoyl taxol were placed in two pigs, one stent in the right coronary artery and the other stent in the other pig in the left circumflex artery.
# colon cancer/HT 29 = test: cells; format: cell-based
# Description: (§1) In studies performed in support of the invention, the in vitro cytotoxicity of 7-hexanoyl taxol was compared to paclitaxel. As described in Example 1, LC50 values, which signify the concentration of drug at which 50% of the cells are killed, were determined in five cell lines.
# (§2) A suspension of each cell line which was diluted according to the particular cell type and the expected target cell density (5,000-40,000 cells per well based on cell growth characteristics) was added by pipet (100 µL) into a 96-well microtiter plate. The cells were allowed a pre-incubation period of 24 hours at 37°C for stabilization. At the end of the pre-incubation period (T0), dilutions of 7-hexanoyl taxol or paclitaxel were added in 100 µL aliquots to the microtiter plate wells. The cells were incubated in the presence of the drug for 48 hours under a 5% CO2 atmosphere at 100% humidity. The cells were assayed using the sulforhodamine B assay. A plate reader was used to read the optical densities.
# (§3) The LC50 values were taken as the concentration of compound where 100 x (T-T0)/T0 = -50.
# melanoma/M14 = test: cells; format: cell-based
# Description: as §1, §2, §3
# melanoma/SK-MEL-2 = test: cells; format: cell-based
# Description: as §1, §2, §3
# [3] = tested on: non-small cell lung cancer/NCI H226; test: cells; format: cell-based
# Description: as §1, §2, §3
# ovarian cancer/OVCAR-5 = test: cells; format: cell-based
# Description: as §1, §2, §3
# [4] = Table 3 study, stents in coronary arteries of pigs
structure (smiles),measurement,setting,value
CCCCCC(=O)OC1CC2OCC2(OC(C)=O)C2C(OC(=O)c3ccccc3)C3(O)CC(OC(=O)C(O)C(NC(=O)c4ccccc4)c4ccccc4)C(C)=C(C(OC(C)=O)C(=O)C12C)C3(C)C (stereo not drawn) [7-hexanoyl taxol],water solubility relative to paclitaxel,[1]; from the hydrophobic shift of HPLC retention time,less water soluble than paclitaxel
same,retention time,[1],30.9 min
same,intimal thickening compared to paclitaxel,[2]; [4],less
same,percent stenosis compared to paclitaxel,[2]; [4],lower
same,"percent diameter stenosis compared to the water-soluble derivative, 7-xylosyltaxol","[2]; Table 3 study, stents in coronary arteries of pigs, QCA and morphometric evaluation",considerably lower
same,% Intimal Growth,[2]; left circumflex artery,2.3%
same,% Diameter Stenosis,[2]; left circumflex artery,16%
same,reduction in percent stenosis compared to the stent containing paclitaxel,[2]; one case (of the two stents with 7-hexanoyl taxol),two-fold
same,% Intimal Growth,[2]; right coronary artery,-7.1%
same,% Diameter Stenosis,[2]; right coronary artery,4%
same,reduction in percent stenosis compared to the stent containing paclitaxel,[2]; the other case (of the two stents with 7-hexanoyl taxol),~8 fold
same,CC50,"colon cancer/HT 29; colon cancer/HT 29, 48 hours with drug, concentration at which 50% of the cells are killed, read-out: LC50 (the source's name)",30 µM
same,CC50,"melanoma/M14; melanoma/M14, 48 hours with drug, read-out: LC50 (the source's name)",1.1 µM
same,CC50,"melanoma/SK-MEL-2; melanoma/SK-MEL-2, 48 hours with drug, read-out: LC50 (the source's name)",> 100 µM
same,CC50,"[3]; non-small cell lung cancer/NCI H226, 48 hours with drug, read-out: LC50 (the source's name)",> 100 µM
same,CC50,"ovarian cancer/OVCAR-5; ovarian cancer/OVCAR-5, 48 hours with drug, read-out: LC50 (the source's name)",50 µM
"CC(=O)O[C@H]1C(=O)[C@@]2(C)[C@H]([C@H](OC(=O)c3ccccc3)[C@]3(O)C[C@H](OC(=O)[C@H](O)[C@@H](NC(=O)c4ccccc4)c4ccccc4)C(C)=C1C3(C)C)[C@]1(OC(C)=O)CO[C@@H]1C[C@@H]2O [Paclitaxel, reference compound]",retention time,[1],18.5 min
same,% Intimal Growth,[2]; right coronary artery,29.5%
same,% Diameter Stenosis,[2]; right coronary artery,34%
same,CC50,"colon cancer/HT 29; Homo sapiens, HT-29, 48 h, read-out: LC50",30 µM
same,CC50,"melanoma/M14; 48 h, read-out: LC50",100 µM
same,CC50,"melanoma/SK-MEL-2; Homo sapiens, SK-MEL-2, 48 h, read-out: LC50",100 µM
same,CC50,"[3]; Homo sapiens, NCI-H226, 48 h, read-out: LC50",70 µM
same,CC50,"ovarian cancer/OVCAR-5; Homo sapiens, OVCAR-5, 48 h, read-out: LC50",> 100 µM
